In patent US20230286973A1, “PROTEIN SECRETION INHIBITORS” (KEZAR LIFE SCIENCES, priority 2020, published 2023):
pEC50, pIC50: −log10 of the molar value. Where two headings read alike, the source gives them in different places.

Columns and labels:
[1] = test system: PD1-ss+10aa/Gaussia Luciferase; assay: Dox-Induced PD1-ss-Gluc Assay; format: cell-based; conditions: 24 hr Dox induction, 293FRT/TO cells, read-out: 24 hr Dox Inducible PD1ssGluc 293FRT/TO: Mean IC50
Summary of the method: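 Flp-In 293 T-REx cells stably carrying a doxycycline-inducible Gaussia luciferase fused to the PD1 signal sequence plus 10 aa were plated the day before. Compound dilutions in DMSO/media containing doxycycline were then added and incubated at 37 °C, 5% CO2. Data for undefined stereochemistry refer to stereoisomer mixtures.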

[2] = test system: TNFα-FL/Gaussia Luciferase; assay: Dox Induced TNFα-FL-Gluc Assay; format: cell-based; conditions: for pIC50: 24 hr Dox induction, 293FRT/TO cells, read-out: 24 hr Dox Inducible TNFaFLGluc 293FRT/TO: Mean IC50; for 24 hr Dox Inducible TNFaFLGluc 293FRT/TO: TNF/PD1: ratio of TNFaFLGluc IC50 to PD1ssGluc IC50
Summary of the method: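 Doxycycline-inducible Gaussia luciferase-tagged full-length TNFα (1-233) was expressed in stable Flp-In 293 T-REx cells. Compounds were co-added with doxycycline and incubated at 37 °C, 5% CO2.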

[3] = test system: HER3-ss+4aa/Gaussia Luciferase; assay: Dox-Induced Her3-ss-Gluc Assay; format: cell-based; conditions: 24 hr Dox induction, 293FRT/TO cells, read-out: 24 hr Dox Inducible Her3(ss + 4)Gluc 293FRT/TO: Mean IC50
Summary of the method: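 Reporter line: Flp-In 293 T-REx, T-REx-regulated HER3-ss+4aa fused to Gaussia luciferase. Compound co-added with doxycycline after overnight plating, 37° C., 5% CO2.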

[4] = test system: IL-2-FL/Gaussia Luciferase; assay: Dox Induced IL2-FL-Gluc Assay; format: cell-based; conditions: for pIC50: 24 hr Dox induction, 293FRT/TO cells, read-out: 24 hr Dox Inducible IL2FLGluc 293FRT/TO: Mean IC50; for 24 hr Dox Inducible IL2FLGluc 293FRT/TO: IL2/PD1: ratio of IL2FLGluc IC50 to PD1ssGluc IC50
Summary of the method: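 Doxycycline induces an IL-2(1-153)–Gaussia luciferase fusion in a stable Flp-In 293 T-REx line. Compound exposure runs alongside induction at 37° C.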

[5] = test system: multiple myeloma cell line NCI-H929; assay: H929 Cell Viability Assay; format: cell-based, human; conditions: Homo sapiens, NCI-H929, 48 h, NCI-H929 cells, Celltiter-Glo
Summary of the method: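 Viability is scored by CellTiter-Glo luminescence following a 48-hour treatment at 37° C. Data for structures shown without stereochemistry refer to stereoisomer mixtures.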

[6] = test system: multiple myeloma cell line U266B1; assay: U266 Cell Viability Assay; format: cell-based, human; conditions: Homo sapiens, U-266, 48 h, U266B1 cells, Celltiter-Glo
Summary of the method: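 Viability is measured as luciferase signal from CellTiter-Glo following a 48-hour incubation with compound at 37° C. under 5% CO2. Where structures lack drawn stereochemistry, values refer to stereoisomer mixtures.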

[7] = Liver Microsome Stability Assay (rat); conditions: rat liver microsomes, with NADPH, 1.0 uM compound
Procedure: (§1) Stability of a compound was assessed in the presence of liver microsomes from various sources—mouse, rat, monkey and human liver microsomes. 1.0 uM compound, 0.4% DMSO in 0.1 M Potassium Phosphate with 1.0 mg/mL liver microsomes, were incubated at 37° C. with or without 1 mM NADPH. The samples were quenched at 0, and 30 minutes.

[8] = Liver Microsome Stability Assay (mouse); conditions: mouse liver microsomes, with NADPH, 1.0 uM compound
Procedure: as §1

[9] = Liver Microsome Stability Assay (human); conditions: human liver microsomes, with NADPH, 1.0 uM compound
Procedure: as §1

[10] = Liver Microsome Stability Assay (monkey); conditions: monkey liver microsomes, with NADPH, 1.0 uM compound
Procedure: as §1

[11] = '<=>' given where both are I.A.

Row | Structure (SMILES) | pIC50 ([1]; mean) | pIC50 ([2]; mean) | pIC50 ([3]; mean) | pIC50 ([4]; mean) | pEC50 [5] | pEC50 [6] | Liver Microsome Stability (Multiple Species): Rat - % Remaining after 30 min w/NADPH [7] [%] | Liver Microsome Stability (Multiple Species): Mouse - % Remaining after 30 min w/NADPH [8] [%] | Liver Microsome Stability (Multiple Species): Human - % Remaining after 30 min w/NADPH [9] [%] | Liver Microsome Stability (Multiple Species): Monkey - % Remaining after 30 min w/NADPH [10] [%] | pIC50 [1] | pIC50 [2] | pIC50 [3] | pIC50 [4] | 24 hr Dox Inducible TNFaFLGluc 293FRT/TO: TNF/PD1 [2, 11] | 24 hr Dox Inducible IL2FLGluc 293FRT/TO: IL2/PD1 [4, 11] | 24 hr Dox Inducible TNFaFLGluc 293FRT/TO: TNF/PD1 [2] | 24 hr Dox Inducible IL2FLGluc 293FRT/TO: IL2/PD1 [4]
1 | N#Cc1ccccc1Cn1cccc1C(=O)Nc1nc([C@H]2CCCN2c2ccccc2)cs1 [Compound C86, (R)-1-(2-cyanobenzyl)-N-(4-(1-phenylpyrrolidin-2-yl)thiazol-2-yl)-1H-pyrrole-2-carboxamide] | 5.53 | < 4.60 | 5.96 | 5.62 | < 4.60 | < 4.60 | 20.2 | 43.5 | 27.3 | 15 | – | – | – | – | >8.38 | 0.8 | – | –
2 | CC(C)n1cnc(/C=C/c2csc(NC(=O)c3cccn3Cc3cccnc3)n2)c1 [Compound B63, (E)-N-(4-(2-(1-isopropyl-1H-imidazol-4-yl)vinyl)thiazol-2-yl)-1-(pyridin-3-ylmethyl)-1H-pyrrole-2-carboxamide] | – | – | – | – | < 4.60 | < 4.60 | 1.14 | 0.49 | 6.56 | 0.09 | < 4.68 | < 4.60 | < 4.60 | < 4.60 | – | – | <=>1.20 | <=>1.2
3 | CN(C)C(=O)c1ccc(N2CCC[C@@H]2c2csc(NC(=O)c3cccn3Cc3ccncc3)n2)cc1 [Compound A18, (R)-N-(4-(1-(4-(dimethylcarbamoyl)phenyl)pyrrolidin-2-yl)thiazol-2-yl)-1-(pyridin-4-ylmethyl)-1H-pyrrole-2-carboxamide] | – | – | – | – | 5.80 | < 4.60 | 0.17 | 3.75 | 0.05 | 0.08 | 7.19 | 5.99 | 6.96 | 6.84 | – | – | 15.9 | 2.3
4 | CC(C#N)CCn1cccc1C(=O)Nc1nc([C@H]2CCCN2c2ccccc2)cs1 (stereo partly drawn) [Compound C89, 1-(3-cyanobutyl)-N-(4-((R)-1-phenylpyrrolidin-2-yl)thiazol-2-yl)-1H-pyrrole-2-carboxamide] | 5.93 | 4.84 | 5.75 | 5.54 | < 4.60 | < 4.60 | 5.16 | 16.5 | 24 | 0.31 | – | – | – | – | 12.3 | 2.4 | – | –
5 | CC1CCCn2cnc(/C=C/c3csc(NC(=O)c4cccn4Cc4ccnc(F)c4)n3)c21 (stereo not drawn) [Compound B102, (E)-1-((2-fluoropyridin-4-yl)methyl)-N-(4-(2-(8-methyl-5,6,7,8-tetrahydroimidazo[1,5-a]pyridin-1-yl)vinyl)thiazol-2-yl)-1H-pyrrole-2-carboxamide] | – | – | – | – | 4.67 | < 4.60 | 6.8 | 9.83 | 0.71 | 0.85 | 7.44 | < 4.60 | 5.34 | 5.20 | – | – | >681 | 170

More lines, main results first:

Row | pIC50 ([1]; mean) | pIC50 ([2]; mean) | pIC50 ([3]; mean) | pIC50 ([4]; mean) | pEC50 [5] | pEC50 [6] | Liver Microsome Stability (Multiple Species): Rat - % Remaining after 30 min w/NADPH [7] [%] | Liver Microsome Stability (Multiple Species): Mouse - % Remaining after 30 min w/NADPH [8] [%] | Liver Microsome Stability (Multiple Species): Human - % Remaining after 30 min w/NADPH [9] [%] | Liver Microsome Stability (Multiple Species): Monkey - % Remaining after 30 min w/NADPH [10] [%] | pIC50 [1] | pIC50 [2] | pIC50 [3] | pIC50 [4] | Structure (SMILES) | 24 hr Dox Inducible TNFaFLGluc 293FRT/TO: TNF/PD1 [2, 11] | 24 hr Dox Inducible IL2FLGluc 293FRT/TO: IL2/PD1 [4, 11] | 24 hr Dox Inducible TNFaFLGluc 293FRT/TO: TNF/PD1 [2] | 24 hr Dox Inducible IL2FLGluc 293FRT/TO: IL2/PD1 [4]
6 | 5.78 | < 4.60 | 5.04 | 5.04 | 5.05 | 5.10 | 21.2 | 38.3 | 2.06 | 0.25 | – | – | – | – | CN(C)CCO[C@@H]1C[C@H](c2csc(NC(=O)c3cccn3Cc3ccncc3)n2)N(c2ccccc2)C1 [Compound E31] | >15.0 | 5.4 | – | –
7 | – | – | – | – | < 4.60 | < 4.60 | 2.02 | 0.8 | 1.26 | 0.13 | 6.48 | < 4.60 | < 4.60 | < 4.60 | CC(C)c1c(/C=C/c2csc(NC(=O)c3cccn3Cc3ccncc3)n2)ncn1C [Compound B85, (E)-N-(4-(2-(5-isopropyl-1-methyl-1H-imidazol-4-yl)vinyl)thiazol-2-yl)-1-(pyridin-4-ylmethyl)-1H-pyrrole-2-carboxamide] | – | – | >75.9 | >76
8 | – | – | – | – | < 4.60 | < 4.60 | 1.67 | 2.21 | 1.11 | 0.59 | 6.31 | < 4.60 | 4.94 | < 4.60 | Cc1cccc2nc(/C=C/c3csc(NC(=O)c4cccn4Cc4ccncc4)n3)cn12 [Compound B77, (E)-N-(4-(2-(5-methylimidazo[1,2-a]pyridin-2-yl)vinyl)thiazol-2-yl)-1-(pyridin-4-ylmethyl)-1H-pyrrole-2-carboxamide] | – | – | >50.9 | >51
9 | 6.39 | 4.90 | 6.24 | 6.03 | 4.82 | < 4.60 | 0.83 | 0.39 | 0.22 | 0.56 | – | – | – | – | N#Cc1cnccc1Cn1cccc1C(=O)Nc1nc([C@H]2CCCN2c2ccccc2)cs1 [Compound E59, (R)-1-((3-cyanopyridin-4-yl)methyl)-N-(4-(1-phenylpyrrolidin-2-yl)thiazol-2-yl)-1H-pyrrole-2-carboxamide] | 30.9 | 2.3 | – | –
